# Data: US20010014454A1, “NOVEL METAL COMPLEXES” (priority 2000, published 2001)
# B1: recombinant G-CSF: the natural ligand (i.e. G-CSF or recombinant G-CSF) of the G-CSF receptor (protein, UniProt P09919 31-207, looked up)
# Granulocyte …: TPLGPASSLPQSFLLKCLEQVRKIQGDGAALQEKLVSECATYKLCHPEELVLLGHSLGIPWAPLSSCPSQALQLAGCLSQLHSGLFLYQGLLQALEGISPELGPTLDTLQLDVADFATTIWQQMEELGMAPALQPTQGAMPAFASAFQRRAGGVLVASHLQSFLEVSYRVLRHLAQP
# Legend:
# [1] = biological target: T1, G-CSF receptor (Mus musculus, UniProt P40223); assay: Luciferase reporter gene assay in G-CSF-responsive NFS60 cells; assay type: cell-based, murine; conditions: absence of zinc
# T1 construct: they express endogenous G-CSF receptors; endogenous in cells; host or cells: NFS60 murine myeloid cells with a G-CSF-responsive luciferase reporter
# T1 sequence (P40223 26-837): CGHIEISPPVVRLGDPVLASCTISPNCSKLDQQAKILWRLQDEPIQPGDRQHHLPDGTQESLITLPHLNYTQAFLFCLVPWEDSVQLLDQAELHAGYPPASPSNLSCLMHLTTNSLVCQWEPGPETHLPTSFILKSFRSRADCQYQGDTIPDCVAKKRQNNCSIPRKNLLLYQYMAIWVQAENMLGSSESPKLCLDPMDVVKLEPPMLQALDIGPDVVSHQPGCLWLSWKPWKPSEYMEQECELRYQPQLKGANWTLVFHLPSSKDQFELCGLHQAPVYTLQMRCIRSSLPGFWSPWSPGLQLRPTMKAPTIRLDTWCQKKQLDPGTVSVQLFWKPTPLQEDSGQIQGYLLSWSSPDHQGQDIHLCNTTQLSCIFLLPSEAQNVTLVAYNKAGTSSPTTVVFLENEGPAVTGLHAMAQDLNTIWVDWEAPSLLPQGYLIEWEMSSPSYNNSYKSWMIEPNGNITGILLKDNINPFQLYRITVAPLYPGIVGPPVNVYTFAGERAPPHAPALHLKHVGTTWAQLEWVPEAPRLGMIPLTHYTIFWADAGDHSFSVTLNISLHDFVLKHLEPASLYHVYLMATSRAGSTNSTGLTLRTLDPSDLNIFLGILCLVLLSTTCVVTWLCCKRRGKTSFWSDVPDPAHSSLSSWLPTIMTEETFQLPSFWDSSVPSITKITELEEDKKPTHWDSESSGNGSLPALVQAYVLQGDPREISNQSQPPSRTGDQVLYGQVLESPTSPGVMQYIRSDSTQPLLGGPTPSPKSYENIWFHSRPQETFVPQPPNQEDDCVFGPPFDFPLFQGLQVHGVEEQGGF
# Protocol: Activity of compound 1a is below the threshold of 150% over background. The study was performed as a Luciferase assay configured on the G-CSF-responsive NFS60 cell line as described in Tian et al., Science 281, 257-259 (1998). The experiments shown in FIGS. 2-8 used the same NFS60 cell line.
# Compounds of the present invention are tested for potency as agonist of a dimeric cell-surface receptor in a Luciferase reporter gene assay such as described in Tian et al., Science 281. 257-259 (1998). For example, for G-CSF NFS60 cells (Holmes, et al., Proc. Natl. Acad. Sci. USA 82: 6687-6691 (1985)) are selected because they express endogenous G-CSF receptors closely matching the pattern of STAT (signal transducers and activators of transcription) activation observed in primary murine and human bone marrow cells.
# [2] = biological target: T1, G-CSF receptor; assay: Luciferase assay and EDTA (NFS60 cells, with or without metal chlorides); assay type: cell-based, murine; conditions: for agonist activity in the presence of EDTA: in the presence of EDTA (FIGS. 3 and 4)
# Protocol: FIG. 3 is an analysis of the effect of ethylenediaminetetraacetic acid (as used herein—EDTA) on the activity of Compound 1a (from Example 1) in NFS60 cells. Shown are luciferase response curves of Compound 1a at the indicated concentrations and in the presence of various concentrations of EDTA. […] The media in this assay contained a small amount (1-5 uM) of zinc(II).
# FIGS. 7 and 8 show an analysis of the effect of metal chlorides on the EDTA depleted activity of Compound 1a on NFS60 cells. Shown are luciferase response curves as effected by the indicated metal chlorides. […] None of the other metals tested could overcome the inhibitory effect of EDTA.
# In order to determine the requisiteness of zinc chelation of small organic molecules to agonist activity at dimeric cell-surface receptors, the above luciferase assay was performed on the G-CSF receptor in the presence of EDTA. EDTA is a strong metal chelator and had as it only effect, the removal of zinc from the ligand-receptor interaction.
# [3] = test system: peripheral blood neutrophil and monocyte count; assay: In vivo evaluation of peripheral blood neutrophil and monocyte count in the mouse
# Protocol: Compounds of this invention are also tested for activity in the following assays: CFU-G assay (an example of which is described in King A G, Talmadge J., Badger A M, Pelus L M. Regulation of colony stimulating activity production from bone marrow stromal cells by the hematoregulatory peptide, HP-5. Exp. Hematol. 20:223-228, 1992) and in vivo evaluation of peripheral blood neutrophil and monocyte count in the mouse (an example of which is described in Pelus, L. M.; King, A. G.; Broxmeyer, H. E.; DeMarsh, P. L.; Petteway, S. R.; Bhatnagar, P. K., In vivo modulation of hematopoiesis by a novel hematoregulatory peptide Exp-Hematol. 1994 22(3): 239-47). In order to confirm the requirement for zinc(II) chelation, the above CFU-G assay was also conducted in the presence of EDTA.
# [4] = biological target: G-CSF/Fc fusion protein; assay: Isothermal titration microcalorimetry; assay type: binding; conditions: in the presence of zinc
# Protocol: Zinc-mediated affinity of compounds from this invention for dimeric cell-surface receptors (specifically the G-CSF receptor) was measured by isothermal titration microcalorimetry experiments. Titration microcalorimetry detects binding as heat originating from the intrinsic bond forming enthalpy change. In this assay, the compounds were titrated first against zinc(II) alone. In a separate experiment, the compounds were then assayed in the presence of zinc and a dimeric cell-surface receptor/Fc fusion protein (a G-CSF/Fc fusion protein), which contained the extracellular domain of the receptor presented in a dimeric form due to the Fc component.
Molecule,luciferase activity over background [1],"effect of metal chlorides on the EDTA depleted luciferase activity ([2]; Compound 1a, 50 micromolar EDTA, plus metal chlorides)","effect of EDTA on luciferase activity ([2]; EDTA at 1.2 millimolar, media contained 1-5 uM zinc(II))",agonist activity in the presence of EDTA [2],peripheral blood neutrophil and monocyte count [3],affinity for the fusion protein construct [4],effect of EDTA on luciferase activity ([2]; EDTA at both 1.2 and 5 millimolar)
"c1ccc(C23NC(=Nc4nc5ccccc5[nH]4)NC2(c2ccccn2)NC(=Nc2nc4ccccc4[nH]2)N3)nc1 (stereo not shown) [Compound 1a, 2,5-Bis[2-benzimidazolylimino]-3a,6a-bis(2-pyridyl)-1,2,3,3a,4,5,6,6a-octahydroimidazo[4,5-d]imidazole]",< 150%,Only zinc (II) at concentrations 0.5-10 micromolar can overcome the inhibition,antagonized,abrogated,elevation,submicromolar,
"Cc1ccc2nc(N=C3NC4(c5ccccn5)NC(=Nc5nc6ccccc6[nH]5)NC4(c4ccccn4)N3)[nH]c2c1.O=C(O)C(F)(F)F.O=C(O)C(F)(F)F (stereo not shown) [Compound 3a, 5-(2-benzimidazolylimino)-2-[(5-methyl-2-benzimidazolyl)imino]-3a,6a-bis(2-pyridyl)-1,2,3,3a,4,5,6,6a-octahydroimidazo[4,5-d]imidazole bis(trifluoroacetate) salt]",,,,,elevation,submicromolar,
B1,,,,not mediated by metal ions,,,little effect
